Test results reported in ChEMBL document CHEMBL4118236, “Click Chemistry-Based Discovery of [3-Hydroxy-5-(1 H-1,2,3-triazol-4-yl)picolinoyl]glycines as Orally Active Hypoxia-Inducing Factor Prolyl Hydroxylase Inhibitors with Favorable Safety Profiles for the Treatment of Anemia” (J Med Chem, 2018).
In brackets after ≈: the same amount, converted by molar mass.

Assays:
Mus musculus [1] = experiment: Acute toxicity in C57BL/6 mouse assessed as effect on growth at 25 to 200 mg/kg, po administered every other day for 14 days; assay type: organism-based; settings: in vivo, 336 h
Rattus norvegicus [2] = experiment: AUC (0 to infinity) in Sprague-Dawley rat at 10 mg/kg, po by LC-MS/MS; assay type: ADME, organism-based; parameters: dose 10 mg/kg, time infinity, route oral; settings: in vivo
[3] = MRT (0 to infinity) in Sprague-Dawley rat at 10 mg/kg, po by LC-MS/MS; assay type: ADME, organism-based; settings: in vivo
[4] = Clearance in Sprague-Dawley rat at 10 mg/kg, po by LC-MS/MS; assay type: ADME, organism-based; settings: in vivo
Mus musculus [5] = experiment: Acute toxicity in C57BL/6 mouse assessed as change in spleen to body weight ratio at 25 to 200 mg/kg, po administered every other day for 14 days measured on day 14 post last dose; assay type: organism-based; settings: in vivo, 336 h
Mus musculus [6] = experiment: Upregulation of plasma EPO level in C57BL/6 mouse assessed as EPO level at 50 mg/kg, po after 4 hrs by ELISA; assay type: functional
[7] = Half life in Sprague-Dawley rat at 1 mg/kg, iv by LC-MS/MS; assay type: ADME, organism-based; settings: in vivo
Mus musculus [8] = experiment: Acute toxicity in C57BL/6 mouse assessed as apparent signs of toxicity at 25 to 200 mg/kg, po administered every other day for 14 days; assay type: organism-based; settings: in vivo, 336 h
Mus musculus [9] = experiment: Antianemic activity in C57BL/6 mouse cisplatin-induced anemia model assessed as increase in hemoglobin level at 25 mg/kg, po administered every other day for 30 days relative to control; assay type: functional
Egl nine homolog 1 [10] = molecular target: T1, Egl nine homolog 1 (Homo sapiens, UniProt Q9GZT9)
[11] = Lipophilicity, log D of the compound at pH 7.4 by potentiometric titration method; assay type: physicochemical; settings: buffer
[12] = Apparent volume of distribution in Sprague-Dawley rat at 1 mg/kg, iv by LC-MS/MS; assay type: ADME, organism-based; settings: in vivo, read-out: Vz
HEK293 = experiment: Cytotoxicity against HEK293 cells assessed as reduction in cell viability at 10 to 100 uM after 72 hrs by MTT assay; assay type: cell-based; settings: human, hek293, 72 h
[13] = Half life in Sprague-Dawley rat at 10 mg/kg, po by LC-MS/MS; assay type: ADME, organism-based; settings: in vivo
Mus musculus [14] = experiment: Acute toxicity in C57BL/6 mouse assessed as change in lungs to body weight ratio at 25 to 200 mg/kg, po administered every other day for 14 days measured on day 14 post last dose; assay type: organism-based; settings: in vivo, 336 h
Mus musculus [15] = experiment: Toxicity in C57BL/6 mouse assessed as damage in spleen at 25 to 200 mg/kg, po administered every other day for 14 days measured on day 14 post last dose by H and E staining based assay; assay type: organism-based; settings: in vivo, 336 h
Mus musculus [16] = experiment: Antianemic activity in C57BL/6 mouse cisplatin-induced anemia model assessed as increase in hemoglobin level at 10 mg/kg, po administered every other day for 30 days relative to control; assay type: functional
Mus musculus [17] = experiment: Cardiotoxicity in C57BL/6 mouse at 25 to 200 mg/kg, po administered every other day for 14 days measured on day 14 post last dose by H and E staining based assay; assay type: toxicity, organism-based; settings: in vivo, 336 h
Rattus norvegicus [18] = experiment: Apparent volume of distribution in Sprague-Dawley rat at 10 mg/kg, po by LC-MS/MS; assay type: ADME, organism-based; settings: in vivo
L02 = experiment: Cytotoxicity against human L02 cells assessed as reduction in cell viability at 10 to 100 uM after 72 hrs by MTT assay; assay type: cell-based; settings: l02, 72 h
[19] = Tmax in Sprague-Dawley rat at 10 mg/kg, po by LC-MS/MS; assay type: ADME, organism-based; settings: in vivo
Mus musculus [20] = experiment: Acute toxicity in C57BL/6 mouse assessed as change in heart to body weight ratio at 25 to 200 mg/kg, po administered every other day for 14 days measured on day 14 post last dose; assay type: organism-based; settings: in vivo, 336 h
[21] = Effective permeability of the compound at pH 7.4 by PAMPA; assay type: ADME; settings: read-out: Peff
Mus musculus [22] = experiment: Acute toxicity in C57BL/6 mouse assessed as effect on food intake at 25 to 200 mg/kg, po administered every other day for 14 days measured during compound dosing; assay type: organism-based; settings: in vivo, 336 h
Mus musculus [23] = experiment: Toxicity in C57BL/6 mouse assessed as damage in lungs at 25 to 200 mg/kg, po administered every other day for 14 days measured on day 14 post last dose by H and E staining based assay; assay type: organism-based; settings: in vivo, 336 h
Mus musculus [24] = experiment: Acute toxicity in C57BL/6 mouse assessed as increase in body weight at 25 to 200 mg/kg, po administered every other day for 14 days measured during compound dosing; assay type: organism-based; settings: in vivo, 336 h
Mus musculus [25] = experiment: Acute toxicity in C57BL/6 mouse assessed as change in liver to body weight ratio at 25 to 200 mg/kg, po administered every other day for 14 days measured on day 14 post last dose; assay type: organism-based; settings: in vivo, 336 h
Rattus norvegicus [26] = experiment: AUC (0 to t) in Sprague-Dawley rat at 10 mg/kg, po by LC-MS/MS; assay type: ADME, organism-based; settings: in vivo
Mus musculus [27] = experiment: Acute toxicity in C57BL/6 mouse assessed as behavioral abnormality at 25 to 200 mg/kg, po administered every other day for 14 days; assay type: organism-based; settings: in vivo, 336 h
Hep 3B2 = experiment: Cytotoxicity against human Hep3B cells assessed as reduction in cell viability at 10 to 100 uM after 72 hrs by MTT assay; assay type: cell-based; settings: hep 3b2, 72 h
HUVEC = experiment: Cytotoxicity against HUVEC assessed as reduction in cell viability at 10 to 100 uM after 72 hrs by MTT assay; assay type: cell-based; settings: human
[28] = Dissociation constant, pKa of the compound by potentiometric titration method; assay type: physicochemical
[29] = Oral bioavailability in Sprague-Dawley rat at 10 mg/kg by LC-MS/MS; assay type: ADME, organism-based; settings: in vivo
Mus musculus [30] = experiment: Acute toxicity in C57BL/6 mouse assessed as change in kidney to body weight ratio at 25 to 200 mg/kg, po administered every other day for 14 days measured on day 14 post last dose; assay type: organism-based; settings: in vivo, 336 h
Rattus norvegicus [31] = experiment: AUC (0 to t) in Sprague-Dawley rat at 1 mg/kg, iv by LC-MS/MS; assay type: ADME, organism-based; settings: in vivo
[32] = Clearance in Sprague-Dawley rat at 1 mg/kg, iv by LC-MS/MS; assay type: ADME, organism-based; settings: in vivo
Rattus norvegicus [33] = experiment: AUC (0 to infinity) in Sprague-Dawley rat at 1 mg/kg, iv by LC-MS/MS; assay type: ADME, organism-based; parameters: dose 1 mg/kg, route intravenous, time infinity; settings: in vivo
Mus musculus [34] = experiment: Nephrotoxicity in C57BL/6 mouse at 25 to 200 mg/kg, po administered every other day for 14 days measured on day 14 post last dose by H and E staining based assay; assay type: toxicity, organism-based; settings: in vivo, 336 h
[35] = Cmax in Sprague-Dawley rat at 10 mg/kg, po by LC-MS/MS; assay type: ADME, organism-based; parameters: dose 10 mg/kg, route oral; settings: in vivo
Mus musculus [36] = experiment: Hepatotoxicity in C57BL/6 mouse at 25 to 200 mg/kg, po administered every other day for 14 days measured on day 14 post last dose by H and E staining based assay; assay type: toxicity, organism-based; settings: in vivo, 336 h
[37] = Intrinsic aqueous solubility of the compound at pH 7.4 by potentiometric titration method; assay type: physicochemical; settings: buffer
[38] = Therapeutic index, ratio of compound effect for toxicity in C57BL/6 mouse to compound effect for upregulation of plasma EPO level in C57BL/6 mouse; assay type: organism-based; settings: read-out: TI
Egl nine homolog 1 [39] = molecular target: T1, Egl nine homolog 1; remark: listed apart in the source
[40] = MRT (0 to infinity) in Sprague-Dawley rat at 1 mg/kg, iv by LC-MS/MS; assay type: ADME, organism-based; settings: in vivo

T1 sequence (Q9GZT9 whole entry): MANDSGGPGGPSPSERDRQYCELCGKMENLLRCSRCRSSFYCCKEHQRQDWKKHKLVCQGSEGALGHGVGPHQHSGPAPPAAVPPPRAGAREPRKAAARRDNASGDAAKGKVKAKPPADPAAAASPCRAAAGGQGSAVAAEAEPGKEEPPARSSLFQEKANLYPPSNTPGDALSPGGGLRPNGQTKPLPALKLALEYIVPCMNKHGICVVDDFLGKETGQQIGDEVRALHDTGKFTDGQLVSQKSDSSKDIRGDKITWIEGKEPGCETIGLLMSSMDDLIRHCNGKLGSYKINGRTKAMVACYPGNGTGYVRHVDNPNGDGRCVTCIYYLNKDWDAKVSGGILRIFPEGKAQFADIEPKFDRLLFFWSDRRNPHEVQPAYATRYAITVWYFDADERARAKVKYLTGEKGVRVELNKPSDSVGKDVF

Q: Which Activity (Mus musculus [1]) does the source give for `O=C(O)CNC(=O)c1ncc(-c2cn(CCCc3ccc(Cl)cc3)nn2)cc1O` here?
A: Non-Toxic

Q: And the AUC (Rattus norvegicus [2])?
A: 5440 ng·h/mL

Q: And the MRT inf [3]?
A: 3.28 h

Q: What about the CL/F [4] of the same compound?
A: 31.2 mL/min/kg

Q: And the Activity (Mus musculus [5])?
A: Non-Toxic

Q: And the Activity (Mus musculus [6])?
A: 1300 pg/mL

Q: What about the half-life [7] of the same compound?
A: 1.51 h

Q: What about the Activity (Mus musculus [8]) of the same compound?
A: Non-Toxic

Q: What about the Activity (Mus musculus [9]) of the same compound?
A: 96.7%

Q: And the IC50 (Egl nine homolog 1 [10])?
A: 1310 nM

Q: What about the logD [11] of the same compound?
A: 2.13

Q: And the Vd [12]?
A: 2.31 L/kg

Q: What about the Activity (HEK293) of the same compound?
A: Non-Toxic

Q: What about the half-life [13] of the same compound?
A: 3.07 h

Q: And the Activity (Mus musculus [14])?
A: Non-Toxic

Q: What about the Activity (Mus musculus [15]) of the same compound?
A: Non-Toxic

Q: What about the Activity (Mus musculus [16]) of the same compound?
A: 61.9%

Q: And the Activity (Mus musculus [17])?
A: Non-Toxic

Q: And the Vz (Rattus norvegicus [18])?
A: 8.634 L/kg

Q: What about the Activity (L02) of the same compound?
A: Non-Toxic

Q: And the Tmax [19]?
A: 0.917 h

Q: And the Activity (Mus musculus [20])?
A: Non-Toxic

Q: And the Papp [21]?
A: 11.5 ×10⁻⁶ cm/s

Q: And the Activity (Mus musculus [22])?
A: Non-Toxic

Q: What about the Activity (Mus musculus [23]) of the same compound?
A: Non-Toxic

Q: What about the Activity (Mus musculus [24]) of the same compound?
A: Toxic

Q: And the Activity (Mus musculus [25])?
A: Non-Toxic

Q: What about the AUCt (Rattus norvegicus [26]) of the same compound?
A: 4990 ng·h/mL

Q: What about the Activity (Mus musculus [27]) of the same compound?
A: Non-Toxic

Q: And the Activity (Hep 3B2)?
A: Non-Toxic

Q: What about the Activity (HUVEC) of the same compound?
A: Non-Toxic

Q: What about the pKa [28] of the same compound?
A: 3.21

Q: And the bioavailability [29]?
A: 54.1%

Q: And the Activity (Mus musculus [30])?
A: Non-Toxic

Q: What about the AUCt (Rattus norvegicus [31]) of the same compound?
A: 923 ng·h/mL

Q: And the clearance [32]?
A: 19.4 mL/min/kg

Q: What about the AUC (Rattus norvegicus [33]) of the same compound?
A: 933 ng·h/mL

Q: And the Activity (Mus musculus [34])?
A: Non-Toxic

Q: What about the Cmax [35] of the same compound?
A: 1550 ng/mL

Q: What about the Activity (Mus musculus [36]) of the same compound?
A: Non-Toxic

Q: What about the solubility [37] of the same compound?
A: 1180 µg/mL (≈ 2850 µM)

Q: What about the selectivity ratio [38] of the same compound?
A: 10

Q: And the IC50 (Egl nine homolog 1 [39])?
A: 62.2 nM

Q: And the MRT inf [40]?
A: 0.623 h

Q: For `O=C(O)CNC(=O)c1ncc(-c2cn(CCc3ccc(Cl)cc3)nn2)cc1O`, which Activity (HEK293) is on record?
A: Non-Toxic

Q: And the Activity (L02)?
A: Non-Toxic

Q: And the Activity (Hep 3B2)?
A: Non-Toxic

Q: And the Activity (HUVEC)?
A: Non-Toxic

Q: What does the source list for `Cc1nc(C(=O)NCC(=O)O)c(O)c2ccc(Oc3ccccc3)cc12` [ROXADUSTAT]?
A: Activity (Mus musculus [9]): 92.5%; logD [11]: 3.77; Activity (HEK293): Non-Toxic; Activity (Mus musculus [16]): 67.7%; Activity (L02): Non-Toxic; Papp [21]: 12.7 ×10⁻⁶ cm/s; Activity (Hep 3B2): Non-Toxic; Activity (HUVEC): Non-Toxic; pKa [28]: 3.15; solubility [37]: 255 µg/mL (≈ 725 µM)
